Data from BindingDB's records for doi:10.1111/cbdd.12580 (Sichuan University, 2015).

How the values were obtained:
[1] = target: Carboxylic ester hydrolase (Rattus norvegicus, UniProt Q9JKC1); experiment: Modified Ellman Assay
Procedure: (§1) Then, 5,5'-dithiobis-2-nitrobenzoic acid (DTNB, 0.2%, 30 μL) (J&K Scientific) was added.

[2] = target: T1, Acetylcholinesterase (Rattus norvegicus, UniProt P37136); experiment: Modified Ellman Assay
T1 sequence (P37136 whole entry): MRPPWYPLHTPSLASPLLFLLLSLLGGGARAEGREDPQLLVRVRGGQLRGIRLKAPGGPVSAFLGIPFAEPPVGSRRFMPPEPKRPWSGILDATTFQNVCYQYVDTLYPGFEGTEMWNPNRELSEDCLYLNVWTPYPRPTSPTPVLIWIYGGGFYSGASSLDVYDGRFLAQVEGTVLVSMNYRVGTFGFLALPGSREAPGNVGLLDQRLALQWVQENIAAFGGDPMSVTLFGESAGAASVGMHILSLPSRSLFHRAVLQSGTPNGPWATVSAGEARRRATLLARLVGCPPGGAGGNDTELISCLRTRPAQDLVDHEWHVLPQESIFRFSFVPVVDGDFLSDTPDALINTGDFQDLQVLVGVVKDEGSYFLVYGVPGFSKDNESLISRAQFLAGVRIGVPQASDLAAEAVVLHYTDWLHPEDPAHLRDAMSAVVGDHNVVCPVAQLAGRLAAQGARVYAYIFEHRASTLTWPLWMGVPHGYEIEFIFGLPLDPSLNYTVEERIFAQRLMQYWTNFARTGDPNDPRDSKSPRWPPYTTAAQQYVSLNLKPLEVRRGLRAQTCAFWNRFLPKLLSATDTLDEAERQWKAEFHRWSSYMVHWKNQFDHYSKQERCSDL
Procedure: as §1

Sequence of Carboxylic ester hydrolase (Q9JKC1 whole entry): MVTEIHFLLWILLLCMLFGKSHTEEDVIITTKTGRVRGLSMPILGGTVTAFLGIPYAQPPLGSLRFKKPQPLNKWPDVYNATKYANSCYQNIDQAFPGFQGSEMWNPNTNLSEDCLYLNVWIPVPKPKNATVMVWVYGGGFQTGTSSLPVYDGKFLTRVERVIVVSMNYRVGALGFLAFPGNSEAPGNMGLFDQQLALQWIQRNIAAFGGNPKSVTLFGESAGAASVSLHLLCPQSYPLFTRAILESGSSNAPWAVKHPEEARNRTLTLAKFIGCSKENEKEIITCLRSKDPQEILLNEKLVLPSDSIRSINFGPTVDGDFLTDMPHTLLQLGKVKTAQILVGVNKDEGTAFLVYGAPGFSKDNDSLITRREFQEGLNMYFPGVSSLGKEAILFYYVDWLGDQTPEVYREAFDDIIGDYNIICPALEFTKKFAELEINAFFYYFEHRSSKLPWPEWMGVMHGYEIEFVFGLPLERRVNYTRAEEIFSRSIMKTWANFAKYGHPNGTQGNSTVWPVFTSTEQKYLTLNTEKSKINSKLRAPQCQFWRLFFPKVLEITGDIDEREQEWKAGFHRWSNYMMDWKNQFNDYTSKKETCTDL

| SMILES | IC50 [1] [µM] | IC50 [2] [µM] |
| --- | --- | --- |
| CCN(CC)C(=O)Oc1ccc(-c2cc(=O)c3c(OC(C)=O)c(OC(C)=O)c(OC(C)=O)cc3o2)cc1 [N,N-diethylcarbamic acid-4-[5,6,7-tris(acetyloxy)-4-oxo-4H-1-benzopyran-2-yl]phenyl ester (7k)] | 50.3 | 1.5 |
| CCN(CC)C(=O)Oc1ccc(-c2cc(=O)c3c(O)c(OC(C)=O)c(OC(C)=O)cc3o2)cc1 [N,N-diethylcarbamic acid-4-[6,7-bis(acetyloxy)-5-hydroxy-4-oxo-4H-1-benzopyran-2-yl]phenyl ester (7l)] | 62.1 | 2 |
| O=C(Oc1ccc(-c2cc(=O)c3c(O)c(O)c(O)cc3o2)cc1)N1CCCCC1 [1-Piperidinecarboxylic acid-4-(5,6,7-trihydroxy-4-oxo-4H-1-benzopyran-2-yl)phenyl ester (7g)] | > 100 | 12.6 |
| O=C(Oc1ccc(-c2cc(=O)c3c(O)c(O)c(O)cc3o2)cc1)N1CCCC1 [1-Pyrrolidinecarboxylic acid-4-(5,6,7-trihydroxy-4-oxo-4H-1-benzopyran-2-yl)phenyl ester (7e)] | > 100 | 40.7 |
| O=C(Oc1ccc(-c2cc(=O)c3c(O)c(O)c(O)cc3o2)cc1)N1CCC(Cc2ccccc2)CC1 [4-(Phenylmethyl)-1-piperidinecarboxylic acid-4-(5,6,7-trihydroxy-4-oxo-4H-1-benzopyran-2-yl)phenyl ester (7h)] | 35 | 62.2 |
| CCN(CC)C(=O)Oc1ccc(-c2cc(=O)c3c(O)c(O)c(O)cc3o2)cc1 [N,N-diethylcarbamic acid-4-(5,6,7-trihydroxy-4-oxo-4H-1-benzopyran-2-yl)phenyl ester (7b)] | 22.1 | 1.2 |
| CCN(C)C(=O)Oc1ccc(-c2cc(=O)c3c(O)c(O)c(O)cc3o2)cc1 [N-ethyl-N-methylcarbamic acid-4-(5,6,7-trihydroxy-4-oxo-4H-1-benzopyran-2-yl)phenyl ester (7d)] | 30.5 | 2.7 |
| CC(C)N(C(=O)Oc1ccc(-c2cc(=O)c3c(O)c(O)c(O)cc3o2)cc1)C(C)C [N,N-bis(1-methylethyl)carbamic acid-4-(5,6,7-trihydroxy-4-oxo-4H-1-benzopyran-2-yl)phenyl ester (7c)] | 42 | 4 |
| CCN(CC)C(=O)Oc1ccc(-c2cc(=O)c3c(O)c(OC)c(OC)cc3o2)cc1 [N,N-diethylcarbamic acid-4-(5-hydroxy-6,7-dimethoxy-4-oxo-4H-1-benzopyran-2-yl)phenyl ester (7j)] | 22.6 | – |
| O=C(Oc1ccc(-c2cc(=O)c3c(O)c(O)c(O)cc3o2)cc1)N1CCOCC1 [4-Morpholinecarboxylic acid-4-(5,6,7-trihydroxy-4-oxo-4H-1-benzopyran-2-yl)phenyl ester (7f)] | > 100 | 28.5 |
| CCN(CC)C(=O)Oc1ccc(-c2cc(=O)c3c(OC)c(OC)c(OC)cc3o2)cc1 [N,N-diethylcarbamic acid-4-(5,6,7-trimethoxy-4-oxo-4H-1-benzopyran-2-yl)phenyl ester (7i)] | 8.2 | – |
| CN(C)C(=O)Oc1ccc(-c2cc(=O)c3c(O)c(O)c(O)cc3o2)cc1 [N,N-dimethylcarbamic acid-4-(5,6,7-trihydroxy-4-oxo-4H-1-benzopyran-2-yl)phenyl ester (7a)] | 32 | 6.3 |
| O=c1cc(-c2ccc(O)cc2)oc2cc(O)c(O)c(O)c12 [5,6,7-trihydroxy-2-(4-hydroxyphenyl)-4H-chromen-4-one] | > 100 | > 100 |
